Assays:
Test in all cases: kinobeads assay with mass spectrometry detection of kinases (kinase selectivity profile)
Type in all cases: binding
kinases (kinome) [1] = biological target: T1, kinases (kinome) (Homo sapiens, UniProt Q8N5S9); conditions: CaMKK1 (Other), IPI00792960
T1 construct: determined in kinobeads assays with mass spectrometry detection of kinases as described previously; endogenous in cells; host or cells: cell lysate
From the text: (§1) The protein kinase complement of the human genome (the kinome) was described previously (Manning et al., 2002. Science 298(5600):1912-1934). Sequence accession numbers are defined by the International Protein Index (IPI) (Kersey et al., 2004. Proteomics 4(7):1985-1988).

kinases (kinome) [2] = biological target: T2, kinases (kinome) (Homo sapiens, UniProt O14976); conditions: GAK (Other), IPI00298949
T2 construct: determined in kinobeads assays with mass spectrometry detection of kinases as described previously; endogenous in cells; host or cells: cell lysate
T2 sequence (O14976 1-1311): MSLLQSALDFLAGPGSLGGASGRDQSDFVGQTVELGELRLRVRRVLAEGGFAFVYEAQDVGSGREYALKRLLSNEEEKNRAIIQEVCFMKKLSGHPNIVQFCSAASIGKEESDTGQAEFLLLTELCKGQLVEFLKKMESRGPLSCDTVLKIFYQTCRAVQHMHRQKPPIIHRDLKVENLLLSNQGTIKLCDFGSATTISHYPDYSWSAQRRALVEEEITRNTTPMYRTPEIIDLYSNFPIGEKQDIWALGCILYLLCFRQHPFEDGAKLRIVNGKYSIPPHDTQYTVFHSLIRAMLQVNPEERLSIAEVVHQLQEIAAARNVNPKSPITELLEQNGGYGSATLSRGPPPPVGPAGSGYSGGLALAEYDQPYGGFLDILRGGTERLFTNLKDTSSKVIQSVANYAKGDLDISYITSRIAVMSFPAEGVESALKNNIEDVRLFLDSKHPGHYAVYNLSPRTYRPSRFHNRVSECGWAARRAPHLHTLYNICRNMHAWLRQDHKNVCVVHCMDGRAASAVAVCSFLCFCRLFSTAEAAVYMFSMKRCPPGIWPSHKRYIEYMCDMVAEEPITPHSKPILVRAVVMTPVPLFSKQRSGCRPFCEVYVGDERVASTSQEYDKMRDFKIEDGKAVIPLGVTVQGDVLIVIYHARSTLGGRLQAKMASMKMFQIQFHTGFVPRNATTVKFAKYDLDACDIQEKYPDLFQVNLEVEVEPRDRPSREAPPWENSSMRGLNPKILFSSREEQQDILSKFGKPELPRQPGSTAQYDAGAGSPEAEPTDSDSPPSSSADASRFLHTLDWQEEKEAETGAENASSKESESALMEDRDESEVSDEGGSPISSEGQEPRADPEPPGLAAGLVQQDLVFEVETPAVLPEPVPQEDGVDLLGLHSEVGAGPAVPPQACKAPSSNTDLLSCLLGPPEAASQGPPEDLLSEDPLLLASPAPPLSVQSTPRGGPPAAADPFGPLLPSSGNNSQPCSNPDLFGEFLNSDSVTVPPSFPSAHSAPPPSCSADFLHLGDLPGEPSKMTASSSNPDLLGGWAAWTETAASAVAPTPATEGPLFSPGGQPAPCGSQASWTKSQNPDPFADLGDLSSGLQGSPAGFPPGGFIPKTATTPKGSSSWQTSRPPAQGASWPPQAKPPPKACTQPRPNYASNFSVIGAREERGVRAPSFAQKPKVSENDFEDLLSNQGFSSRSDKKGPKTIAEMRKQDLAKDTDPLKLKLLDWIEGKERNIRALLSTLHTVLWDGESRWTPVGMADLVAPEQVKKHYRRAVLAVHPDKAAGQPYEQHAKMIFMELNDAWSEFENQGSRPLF
From the text: as §1

kinases (kinome) [3] = biological target: T3, kinases (kinome) (Homo sapiens, UniProt Q99570); conditions: PIK3R4 (Other), IPI00024006
T3 construct: determined in kinobeads assays with mass spectrometry detection of kinases as described previously; endogenous in cells; host or cells: cell lysate
T3 sequence (Q99570 whole entry): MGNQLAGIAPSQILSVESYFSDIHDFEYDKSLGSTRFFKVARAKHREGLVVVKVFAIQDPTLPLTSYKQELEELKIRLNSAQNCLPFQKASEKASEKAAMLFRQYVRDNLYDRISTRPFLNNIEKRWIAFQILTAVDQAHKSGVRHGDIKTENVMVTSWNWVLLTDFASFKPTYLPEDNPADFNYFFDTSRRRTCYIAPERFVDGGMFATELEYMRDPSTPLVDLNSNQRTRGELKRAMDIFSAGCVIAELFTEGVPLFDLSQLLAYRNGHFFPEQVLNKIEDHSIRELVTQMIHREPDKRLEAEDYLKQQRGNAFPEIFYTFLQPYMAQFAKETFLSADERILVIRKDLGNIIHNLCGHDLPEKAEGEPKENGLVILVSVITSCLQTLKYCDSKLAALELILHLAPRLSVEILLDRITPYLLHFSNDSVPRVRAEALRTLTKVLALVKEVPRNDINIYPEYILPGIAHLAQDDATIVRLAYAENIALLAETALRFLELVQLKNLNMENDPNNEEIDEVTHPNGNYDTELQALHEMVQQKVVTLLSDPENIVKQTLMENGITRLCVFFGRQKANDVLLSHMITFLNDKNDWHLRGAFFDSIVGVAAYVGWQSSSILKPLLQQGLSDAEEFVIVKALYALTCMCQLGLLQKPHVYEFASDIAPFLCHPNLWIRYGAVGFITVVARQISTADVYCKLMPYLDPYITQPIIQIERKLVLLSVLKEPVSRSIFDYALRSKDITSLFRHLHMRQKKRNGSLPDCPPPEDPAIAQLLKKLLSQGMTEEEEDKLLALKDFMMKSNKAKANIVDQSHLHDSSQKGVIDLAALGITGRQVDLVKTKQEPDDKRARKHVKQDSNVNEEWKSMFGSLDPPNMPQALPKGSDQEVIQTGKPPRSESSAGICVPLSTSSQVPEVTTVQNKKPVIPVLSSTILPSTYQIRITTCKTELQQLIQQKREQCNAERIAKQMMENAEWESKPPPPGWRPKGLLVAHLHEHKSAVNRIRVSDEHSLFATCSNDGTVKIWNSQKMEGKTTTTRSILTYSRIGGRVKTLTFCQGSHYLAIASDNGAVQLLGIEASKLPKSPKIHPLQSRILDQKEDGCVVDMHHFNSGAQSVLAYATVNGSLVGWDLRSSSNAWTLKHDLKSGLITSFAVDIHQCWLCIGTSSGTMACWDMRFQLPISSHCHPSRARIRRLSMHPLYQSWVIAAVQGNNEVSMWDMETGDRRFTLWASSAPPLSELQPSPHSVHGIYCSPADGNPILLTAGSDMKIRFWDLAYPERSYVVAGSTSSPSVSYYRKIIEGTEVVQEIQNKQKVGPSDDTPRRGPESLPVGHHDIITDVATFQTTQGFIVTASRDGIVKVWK
From the text: as §1

kinases (kinome) [4] = biological target: T4, kinases (kinome) (Homo sapiens, UniProt Q99683); conditions: MAP3K5 (STE), IPI00412433
T4 construct: determined in kinobeads assays with mass spectrometry detection of kinases as described previously; endogenous in cells; host or cells: cell lysate
T4 sequence (Q99683 1-1374): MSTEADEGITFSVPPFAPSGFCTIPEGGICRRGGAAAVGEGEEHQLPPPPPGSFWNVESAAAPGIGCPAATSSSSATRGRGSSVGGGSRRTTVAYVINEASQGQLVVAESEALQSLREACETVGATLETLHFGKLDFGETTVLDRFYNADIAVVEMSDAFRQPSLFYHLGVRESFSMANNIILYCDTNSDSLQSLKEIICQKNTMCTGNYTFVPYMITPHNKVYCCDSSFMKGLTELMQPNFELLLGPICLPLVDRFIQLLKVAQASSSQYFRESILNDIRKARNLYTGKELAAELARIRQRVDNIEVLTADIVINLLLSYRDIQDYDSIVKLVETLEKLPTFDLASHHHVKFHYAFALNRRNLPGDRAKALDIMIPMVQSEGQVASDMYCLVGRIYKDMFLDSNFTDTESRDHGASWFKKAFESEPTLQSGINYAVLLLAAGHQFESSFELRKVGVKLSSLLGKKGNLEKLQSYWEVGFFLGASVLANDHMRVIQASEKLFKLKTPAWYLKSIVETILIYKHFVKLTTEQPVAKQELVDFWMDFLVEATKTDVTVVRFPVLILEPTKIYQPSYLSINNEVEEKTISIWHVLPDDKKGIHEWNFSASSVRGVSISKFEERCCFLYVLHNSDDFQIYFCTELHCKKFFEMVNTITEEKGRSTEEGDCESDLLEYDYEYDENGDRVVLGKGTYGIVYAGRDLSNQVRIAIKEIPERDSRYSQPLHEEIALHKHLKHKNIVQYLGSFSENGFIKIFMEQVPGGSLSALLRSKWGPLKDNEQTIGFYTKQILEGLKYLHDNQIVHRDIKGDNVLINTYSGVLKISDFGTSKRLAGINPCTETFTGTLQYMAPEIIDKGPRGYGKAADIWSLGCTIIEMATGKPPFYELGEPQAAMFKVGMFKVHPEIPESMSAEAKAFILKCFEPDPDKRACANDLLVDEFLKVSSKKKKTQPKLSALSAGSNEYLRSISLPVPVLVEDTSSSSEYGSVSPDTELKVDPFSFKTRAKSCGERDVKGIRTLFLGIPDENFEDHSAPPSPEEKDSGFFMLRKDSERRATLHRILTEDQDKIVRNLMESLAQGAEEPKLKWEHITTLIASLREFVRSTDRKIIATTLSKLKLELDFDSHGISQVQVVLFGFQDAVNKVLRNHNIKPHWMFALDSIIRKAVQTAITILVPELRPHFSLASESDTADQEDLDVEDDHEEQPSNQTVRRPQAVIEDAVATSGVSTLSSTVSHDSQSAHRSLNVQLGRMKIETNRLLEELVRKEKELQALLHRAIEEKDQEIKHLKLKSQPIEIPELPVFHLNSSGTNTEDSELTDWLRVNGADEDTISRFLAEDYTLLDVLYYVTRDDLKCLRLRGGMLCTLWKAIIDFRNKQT
From the text: as §1

kinases (kinome) [5] = biological target: T5, kinases (kinome) (Homo sapiens, UniProt P49760); conditions: CLK2 (CMGC), IPI00028071
T5 construct: determined in kinobeads assays with mass spectrometry detection of kinases as described previously; endogenous in cells; host or cells: cell lysate
T5 sequence (P49760 whole entry): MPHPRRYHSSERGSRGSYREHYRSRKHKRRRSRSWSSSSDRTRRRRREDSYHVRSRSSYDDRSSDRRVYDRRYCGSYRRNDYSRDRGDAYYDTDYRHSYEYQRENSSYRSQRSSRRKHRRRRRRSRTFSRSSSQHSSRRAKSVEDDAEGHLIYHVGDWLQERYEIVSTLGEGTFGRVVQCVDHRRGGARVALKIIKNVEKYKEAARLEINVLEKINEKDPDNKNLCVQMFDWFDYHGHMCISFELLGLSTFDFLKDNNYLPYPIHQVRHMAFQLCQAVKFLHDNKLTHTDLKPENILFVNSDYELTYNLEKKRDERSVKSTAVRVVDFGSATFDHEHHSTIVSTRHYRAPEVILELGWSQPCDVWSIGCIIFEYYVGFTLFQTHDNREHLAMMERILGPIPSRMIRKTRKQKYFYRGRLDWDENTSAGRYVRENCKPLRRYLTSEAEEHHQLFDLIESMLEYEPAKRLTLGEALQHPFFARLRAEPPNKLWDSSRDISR
From the text: as §1

Measured: IC50

T1 sequence (Q8N5S9 whole entry): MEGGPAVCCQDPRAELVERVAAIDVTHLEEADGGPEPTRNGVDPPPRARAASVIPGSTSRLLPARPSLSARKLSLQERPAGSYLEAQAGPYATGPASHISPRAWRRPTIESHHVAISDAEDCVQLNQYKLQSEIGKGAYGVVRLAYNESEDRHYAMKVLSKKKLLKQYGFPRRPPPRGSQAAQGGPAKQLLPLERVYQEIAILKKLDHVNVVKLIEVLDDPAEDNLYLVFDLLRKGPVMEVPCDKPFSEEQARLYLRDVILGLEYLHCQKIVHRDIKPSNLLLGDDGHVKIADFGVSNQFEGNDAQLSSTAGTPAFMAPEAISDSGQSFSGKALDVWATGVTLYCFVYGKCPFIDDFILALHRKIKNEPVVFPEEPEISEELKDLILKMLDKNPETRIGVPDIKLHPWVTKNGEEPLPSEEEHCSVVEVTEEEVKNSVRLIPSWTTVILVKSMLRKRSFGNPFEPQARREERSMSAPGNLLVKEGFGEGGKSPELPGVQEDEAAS

C[C@H]1COCCN1c1nc(-c2ccc(NC(=O)NC3CC3)cc2)cc(-c2ccccc2S(C)(=O)=O)n1 [Example 4, (S)-1-cyclopropyl-3-(4-(2-(3-methylmorpholino)-6-(2-(methylsulfonyl)phenyl)pyrimidin-4-yl)phenyl)urea]
not listed: kinases (kinome) [5]
> 10 µM: all other assays above

CCNC(=O)Nc1ccc(-c2cc(-c3ccccc3C#N)nc(N3CCOC[C@@H]3C)n2)cc1 [Example 8, (S)-1-(4-(6-(2-cyanophenyl)-2-(3-methylmorpholino)pyrimidin-4-yl)phenyl)-3-ethylurea]
> 10 µM: kinases (kinome) [5]

C[C@H]1COCCN1c1nc(-c2ccc(NC(=O)NC3CC3)cc2)cc(-c2cc(F)ccc2S(C)(=O)=O)n1 [Example 40, (S)-1-cyclopropyl-3-(4-(6-(5-fluoro-2-(methylsulfonyl)phenyl)-2-(3-methylmorpholino)pyrimidin-4-yl)phenyl)urea]
not listed: kinases (kinome) [5]
> 10 µM: all other assays above

C[C@H]1COCCN1c1cc(-c2ccccn2)nc(-c2ccc(NC(=O)NCCO)cc2)n1 [Example 43, (S)-1-(2-hydroxyethyl)-3-(4-(4-(3-methylmorpholino)-6-(pyridin-2-yl)pyrimidin-2-yl)phenyl)urea]
not listed: kinases (kinome) [4]
> 10 µM: all other assays above

C[C@H]1COCCN1c1nc(-c2ccc(NC(=O)NC3CC3)cc2)cc(-c2cccnc2S(C)(=O)=O)n1 [Example 46, (S)-1-cyclopropyl-3-(4-(2-(3-methylmorpholino)-6-(2-(methylsulfonyl)pyridin-3-yl)pyrimidin-4-yl)phenyl)urea]
not listed: kinases (kinome) [4]
> 10 µM: all other assays above

C[C@H]1COCCN1c1nc(-c2ccc(NC(=O)N[C@H]3CCC[C@@H]3O)cc2)cc(-c2cc(F)ccc2S(C)(=O)=O)n1 [Example 76, 1-(4-(6-(5-fluoro-2-(methylsulfonyl)phenyl)-2-((S)-3-methylmorpholino)pyrimidin-4-yl)phenyl)-3-((1S,2S)-2-hydroxycyclopentyl)urea]
not listed: kinases (kinome) [5]
> 10 µM: all other assays above
